Laboratory results as given in the NIST ThermoML archive (doi:10.1016/j.fluid.2016.01.013).

Test: xn = mol fraction of the nth substance listed
Conditions: for kinematic viscosity: Liquid, Surface laser light scattering (SLLS)

C=C(F)C(F)(F)F [2,3,3,3-tetrafluoro-1-propene] + FCC(F)(F)F
Conditions | kinematic viscosity [m2/s] | surface tension liquid-gas [mN/m]
293.15 K, x2 = 0.807 | 1.62e-07 | 8.25
293.2 K, x2 = 0.6018 | 1.61e-07 | 7.8
293.22 K, x2 = 0.3196 | 1.49e-07 | 7.38
303.13 K, x2 = 0.6018 | 1.43e-07 | 6.59
303.15 K, x2 = 0.807 | 1.47e-07 | 6.99
303.21 K, x2 = 0.3196 | 1.35e-07 | 6.14
313.12 K, x2 = 0.3196 | 1.25e-07 | 4.93
313.15 K, x2 = 0.6018 | 1.29e-07 | 5.41
323.1 K, x2 = 0.3196 | 1.15e-07 | 3.95
323.15 K, x2 = 0.807 | 1.26e-07 | 4.55
323.16 K, x2 = 0.6018 | 1.22e-07 | 4.24
333.12 K, x2 = 0.6018 | 1.12e-07 | 3.15
333.15 K, x2 = 0.807 | 1.13e-07 | 3.41
333.16 K, x2 = 0.3196 | 1.07e-07 | 2.87
343.14 K, x2 = 0.807 | 1.04e-07 | 2.39
343.16 K, x2 = 0.6018 | 1e-07 | 2.11
343.19 K, x2 = 0.3196 | 9.77e-08 | 1.88
353.1 K, x2 = 0.807 | 9.22e-08 | 1.31
353.16 K, x2 = 0.3196 | 8.7e-08 | 1
353.19 K, x2 = 0.6018 | 8.9e-08 | 1.17
358.15 K, x2 = 0.3196 | 8.36e-08 | 0.6
363.16 K, x2 = 0.807 | 8.21e-08 | 0.53
363.19 K, x2 = 0.6018 | 7.95e-08 | 0.37

F/C=C/C(F)(F)F [trans-1,3,3,3-tetrafluoropropene] + FCC(F)(F)F
x2 = 0.4446
Conditions | kinematic viscosity [m2/s] | surface tension liquid-gas [mN/m]
293.1 K | 1.78e-07 | 8.89
303.16 K | 1.62e-07 | 7.58
313.12 K | 1.45e-07 | 6.34
323.11 K | 1.3e-07 | 5.16
333.14 K | 1.21e-07 | 3.98
343.14 K | 1.12e-07 | 2.92
353.1 K | 1.02e-07 | 1.92
363.1 K | 9e-08 | 1.01
369.15 K | 8.63e-08 | 0.53
